In patent US7611863B2, “Selective staining of biomembranes using voltage-sensitive dyes” (Max-Planck-Gesellschaft zur Foerderung der Wissenschaften …, priority 2004, dated 2009):

Key:
[1] = biological target: alkaline phosphatase from the human placenta (PLAP) (Homo sapiens, UniProt P05187); test: Enzymatic dye hydrolysis (HPLC, isothermal titration calorimetry); format: biochemical
Method: Enzyme kinetics with ITC. We performed enzyme kinetic measurements with Di-4-ASPP phosphate as a substrate of PLAP by isothermal titration calorimetry (ITC). We used Tris-NaCl buffer (20 mM Tris, 100 mM NaCl, pH 8.1) without Zn^2+ and Mg^2+ although most alkaline phosphatases depend on these metals for maximum activity. However, divalent cations bind to lipid membranes and induce their aggregation and fusion^25. The pH-value is a compromise between optimal enzymatic activity (at pH 9.8) and compatibility with vesicles and cells. The microcalorimeter (VP-ITC, Microcal, Northampton, Mass., USA) was thermostatted to 25.0° C., with reference power set to 10 μcal/sec and a stirring speed of 310 rpm. The sample cell contained a PLAP solution of 0.19 DEA Units/ml activity and the syringe was filled with a 1 mM solution of Di-4-ASPP phosphate. The reference cell contained buffer only. Different amounts of dye were injected into the sample cell in separate experiments to cover a concentration range from 2 μM to 15 μM. To determine the heats of dilution alone, injections were carried out with pure buffer. For both hydrolysis and dilution, the baseline signal was approximated by linear or polynomial functions and subtracted from the raw signal resulting in a curve with a flat baseline. The dilution signal was subtracted from the signal of the enzymatic reaction to yield the final calorimeter tracing of enzymatic hydrolysis. The molar heat of reaction was obtained by integration. The initial velocities were determined from the average heat of reaction of the first 10 to 30 seconds after the onset of the reaction, using the mean molar heat of reaction as a proportionality constant. […]
Enzymatic dye hydrolysis. […] We evaluated the heat production per unit time that is proportional to the reaction rate, with the molar heat of reaction being the constant of proportionality^38. […] By calibration with that energy, the initial reaction velocity was evaluated.

[2] = system: HEK 293 cells expressing fusion protein of plasma membrane anchor and PLAP; test: Staining of HEK 293 cells through overexpressed membrane-bound phosphatase; format: cell-based
From the text: FIG. 13A to C: Staining of transfected HEK 293 cells with a voltage sensitive dye by activation of binding through an overexpressed, membrane-bound phosphatase. HEK 293 cells were cotransfected with a vector coding for GFP and a vector coding for a fusion protein of a plasma membrane anchor and phosphatase from the human placenta. A. fluorescence image showing the GFP fluoresence of a transfected cell (excitation filter 450/50 nm, emission filter 510 nm longpass; dichroic mirror: 505 nm). B. The voltage sensitive fluorescent dye Di-8-phosphato-ASPBS (cf. FIG. 11, bottom) was added to the incubation medium. […] C. […] The images shown are optimized for contrast and intensity.
(§1) FIG. 16. Genetically Targeted Staining of HEK293 cells with 1 mM Di-10P-ASPBS. A mixture of stable clones either expressing the membrane-bound phosphatase construct or cytosolic GFP were cultured on the same dish. (A) From left to right: (i) Brightfield image of cells. (ii) Fluorescence image of cells showing cells expressing cytosolic GFP (excitation filter 450/50 nm, emission filter 510 nm, dichroic mirror 505 nm). (iii) Cells expressing phosphatase as obtained by subtraction of GFP expressing cells from image i. (iv) Fluorescence image of cells with filters exc. 535/50 nm, em. 610/75 nm; dichroic mirror 535 nm. The image is normalized to the same level as in row B. (v) autoleveled image iv, showing fluorescence crosstalk of GFP. (B) Enzyme induced staining of cells as measured with filter set exc. 535/50 nm, em. 610/75 nm; dichroic mirror 535 nm. The membrane fluorescence increases over time. (C). Inverted and contrast-enhanced fluorescence images corresponding to row B. (D) Difference images. The image A/iv was subtracted from the images in row B. The resulting images were inverted and contrast was enhanced.
as §1, with “17.” for “16.”, “200 nM Di-12P-ASPBS.” for “1 mM Di-10P-ASPBS.”, “difference” for “and contrast-enhanced fluorescence images corresponding to row B. (D) Difference”, “enhanced. (D) Contrast enhanced images of row C.” for “enhanced.”
Enzyme induced staining. The dye precursors Di-10P-ASPBS and Di-12P-ASPBS were used to effect enzyme induced staining on cells. To test whether the staining is selective, a mixture of two cell populations was cultured in the same dish. One of these stably expressed the phosphatase construct, while the other was stably expressing GFP as a negative marker.

[3] = system: Madine Darby Canine Kidney (MDCK) cells; test: Enzyme induced staining of transiently transfected MDCK cells; format: cell-based; conditions: 200 nM
Method: FIG. 19. Genetically Targeted Staining of MDCK cells with Di-10P-ASPBS and Di-12P-ASPBS. (A) Cells were cotransfected with the membrane-bound phosphatase construct termed ArtPlasMA AP and H2B-GFP, a nucleus-localized transfection marker. Brightfield image and fluorescence images before (−1 sec) and after addition of 200 nM Di-10P-ASPBS. (B) Analogous to row A, but using 200 nM Di-12P-ASPBS. (C) Control experiment. Cells were transfected only with H2B-GFP and incubated with 200 nM Di-12P-ASPBS. Brightfield image and fluorescence images before (−1 sec) and after addition of dye (8 min). (D) Control experiment. Cells were cotransfected with the membrane-bound phosphatase construct termed ArtPlasMA AP and H2B-GFP and incubated with the dye Di-10A-ASPBS. Brightfield image and fluorescence image before (−1 sec) and after addition of dye (20 sec).
Two control experiments were performed: In the first control, cells were transfected only with the transfection marker H2B-GFP. […] In addition, no difference in staining intensity between transfected and untransfected cells can be discerned (FIG. 19C). In the second control experiment, cells were cotransfected with the phosphatase construct and the transfection marker.

Chain of alkaline phosphatase from the human placenta (PLAP) (P05187 23-506): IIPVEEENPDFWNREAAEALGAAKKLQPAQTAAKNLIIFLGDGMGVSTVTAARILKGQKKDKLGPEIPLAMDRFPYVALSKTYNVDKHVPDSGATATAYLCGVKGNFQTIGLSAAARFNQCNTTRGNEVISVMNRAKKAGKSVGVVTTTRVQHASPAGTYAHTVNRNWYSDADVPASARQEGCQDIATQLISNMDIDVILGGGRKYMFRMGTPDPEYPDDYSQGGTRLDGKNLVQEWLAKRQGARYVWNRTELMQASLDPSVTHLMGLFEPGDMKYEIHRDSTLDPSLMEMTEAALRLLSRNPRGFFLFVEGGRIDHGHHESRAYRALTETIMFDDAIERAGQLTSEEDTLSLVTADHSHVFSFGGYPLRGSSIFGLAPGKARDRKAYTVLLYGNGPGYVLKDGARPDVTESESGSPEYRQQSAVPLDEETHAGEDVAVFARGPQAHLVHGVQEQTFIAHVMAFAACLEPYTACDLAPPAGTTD

acceptance as substrate by PLAP ([1]; ITC kinetics) | molar heat of hydrolysis (endothermal) ([1]; ITC, 25.0° C., Tris-NaCl pH 8.1) [kcal/mol] | Compound | conversion by soluble PLAP (HPLC analysis) ([1]; after incubation, enzyme removed by ultrafiltration) | selectivity of staining among precursor dyes ([2]; HEK293 and MDCK cells overexpressing ArtPlasMA-PLAP, Di-8P, Di-10P, Di-12P compared) | staining intensity and confinement to phosphatase expressing cells ([2]; compared with Di-10P-ASPBS) | enzyme induced membrane staining in mixed cell populations ([2]; phosphatase clones and GFP clones in same dish, 1 mM Di-10P-ASPBS, 200 nM Di-12P-ASPBS) | staining of directly adjacent cells ([3]; after 10 minutes incubation) | localization of staining over several minutes ([3]; cells cotransfected with ArtPlasMA AP and H2B-GFP) | staining of control cells without phosphatase ([3]; transfected only with H2B-GFP)
accepted by PLAP as a regular substrate | 0.263 ± 0.048 | CCCCN(CCCC)c1ccc(/C=C/c2cc[n+](CCCOP(=O)([O-])O)cc2)cc1 [Di-4-ASPP phosphate] | quantitatively converted to Di-4-ASPP alcohol | – | – | – | – | – | –
– | – | Di-12-phosphato-ASPBS [Di-12P-ASPBS] | – | best selectivity | distinctly better | allowed enzyme induced membrane staining | Directly adjacent cells are weakly stained | Staining is well localized even after 10 minutes incubation | only weakly stained
